Earlier results in US20210113461A1, “Methods of Treating Fungal Infections” (CIPLA TECHNOLOGIES LLC, priority 2018, published 2021).
Like-named read-outs stand apart in the source and are kept apart here.

Assays:
[1] = tested on: plasma protein
[2] = oral solution

## CCC(C)n1ncn(-c2ccc(N3CCN(c4ccc(OCC5COC(Cn6cncn6)(c6ccc(Cl)cc6Cl)O5)cc4)CC3)cc2)c1=O (centres unmarked) [Itraconazole, itraconazole]
[1]; capsules
  bound by plasma protein: 99.6%
[1]; oral solution
  bound by plasma protein: 99.8%
[2]
  half-life at steady state: 39.7 ± 13 h
  steady-state AUC0-24h under fasted conditions as % of exposure under fed conditions: 131±30%
[2]; 200 mg daily dose, fasted
  mean AUC0-24h at steady-state: 29,271±10,285 ng·h/mL
  mean Cmax at steady-state: 1,963±601 ng/mL
  mean tmax at steady-state: 2.5 ± 0.8 h
[2]; healthy volunteers
  increase of bioavailability under fasted conditions: 30%
